The source of these data is patent US12251364B2, “Treating non-alcoholic steatohepatitis with cck inhibitors” (priority 2018, dated 2025).

Entries after “also recorded” stand apart in the source; their conditions may differ.

Series [1] deals with mice on 75%-CDE diet (NASH, fibrosis and HCC). Put plainly: Prevention study: CDE diet-induced NASH in mice, proglumide in drinking water from start of diet. The format is in vivo, mouse (female C57BL/6). As to the method:
All mouse studies were performed in an ethical fashion and approved by the Institutional Animal Care and Use Committee, protocol #2016-1193 for animal research by Georgetown University. Female C57BL/6 mice (body weight of >20 g) were obtained from Charles River Laboratory (Germantown, MD). Mice were housed with five per cage with filter-top cages and housing light cycled q12 hrs; on-off. […] The first group received a modified Choline Deficient Diet with 75% Ethionine supplemented diet (CDE) as previously described by […] et al. “A modified choline-deficient, ethionine-supplemented diet reduces morbidity and retains a liver progenitor cell response in mice,” Dis Model Mech 8:1635-1641 (2015). […] The control mice received the same diet with choline. Both diets contained casein as the major source of protein and lard (saturated fat) as the primary source of fat. The diet composition is shown in Table 1 and is very similar to the Western diet (Roberts et al. “Western diet-induced hepatic steatosis and alterations in the liver transcriptome in adult Brown-Norway rats,” BMC Gastroenterol. 15:151 (2015)) where the diet consists of a high fat and high sugar and is often used in experimental animal diets to induce NAFLD. The food intake was measured by weighing food consumed to assure mice were eating equal amounts of food in each group, and animals ate ad libitum. Some mice on both diets were treated with the CCK receptor antagonist proglumide (Tocris Bioscience, Bristol, UK) at a concentration of 0.1 mg/ml and the estimated amount ingested per mouse was 30 mg/kg/d that was previously shown to block the CCK receptor (Smith et al. “Cholecystokinin receptor antagonist halts progression of pancreatic cancer precursor lesions and fibrosis in mice,” Pancreas 43:1050-1059 (2014)). Another cohort received untreated drinking water. The study design included two different parts: a “prevention study” and a “reversal study” (FIG. 1). In the prevention study, the goal was to determine if treatment with proglumide could prevent NASH, fibrosis and HCC if started at the same time of the initiation of the high fat CDE diet. Initially mice were randomized into one of four treatment group (FIG. 1). Sixty-five mice received the 75%-CDE diet and untreated drinking water (CDE/Reg). Of these (N=5 each) mice were ethically euthanized and livers dissected and analyzed histologically to assess for evidence of NASH at weeks 4 and 8. When NASH was becoming apparent, mice were continued on this diet and some (N=10) were euthanized at week 12 and some (N=25) were euthanized at week 18. Five mice died in the CDE/Reg diet in the first 12 weeks. A parallel cohort of mice (N=25) were also given the CDE diet but their drinking water was treated with the CCK-receptor antagonist proglumide. In this cohort, some (N=10) were euthanized, blood drawn, and liver examined histologically at week 12. The remainder (N=15) were euthanized and examined at week 18 to compare to the CDE/Reg group. Twenty mice each were treated with the control diet, and half (N=10) in this group received proglumide water and half received untreated drinking water. Half of the control mice were euthanized at the first time point of 12 weeks and the remainder was euthanized at the end of the experiment at 18 weeks. Subgroups of mice were ethically euthanized after CO2 asphyxiation and cervical dislocation at one of 4 different time points: weeks 4, 8, 12, or 18. Blood was collected by pericardiac puncture and centrifuged. Serum was analyzed by VRL Laboratories (Gaithersburg, MD). The following liver tests were evaluated and the normal range for mouse is shown: Alkaline phosphatase (35-275 u/L); Alanine aminotransferase, ALT (17-129 u/L); Aspartate aminotransferase, AST (46-392 u/L); and total bilirubin (0-0.9 mg/dL). The liver tissues were fixed in 4% paraformaldehyde, paraffin embedded, and 8 μm sections were cut. Mounted sections were stained with Hematoxylin & Eosin or Masson's trichrome. […]

Series [2] concerns mice on CDE diet with established NASH. Put plainly: Reversal (recovery) study: established NASH after 12 weeks of CDE diet, then proglumide for 6 weeks. The format is in vivo, mouse (female C57BL/6). As to the method: All mouse studies were performed in an ethical fashion and approved by the Institutional Animal Care and Use Committee, protocol #2016-1193 for animal research by Georgetown University. Female C57BL/6 mice (body weight of >20 g) were obtained from Charles River Laboratory (Germantown, MD). Mice were housed with five per cage with filter-top cages and housing light cycled q12 hrs; on-off. […] The first group received a modified Choline Deficient Diet with 75% Ethionine supplemented diet (CDE) as previously described by […] et al. “A modified choline-deficient, ethionine-supplemented diet reduces morbidity and retains a liver progenitor cell response in mice,” Dis Model Mech 8:1635-1641 (2015). […] The control mice received the same diet with choline. Both diets contained casein as the major source of protein and lard (saturated fat) as the primary source of fat. The diet composition is shown in Table 1 and is very similar to the Western diet (Roberts et al. “Western diet-induced hepatic steatosis and alterations in the liver transcriptome in adult Brown-Norway rats,” BMC Gastroenterol. 15:151 (2015)) where the diet consists of a high fat and high sugar and is often used in experimental animal diets to induce NAFLD. The food intake was measured by weighing food consumed to assure mice were eating equal amounts of food in each group, and animals ate ad libitum. Some mice on both diets were treated with the CCK receptor antagonist proglumide (Tocris Bioscience, Bristol, UK) at a concentration of 0.1 mg/ml and the estimated amount ingested per mouse was 30 mg/kg/d that was previously shown to block the CCK receptor (Smith et al. “Cholecystokinin receptor antagonist halts progression of pancreatic cancer precursor lesions and fibrosis in mice,” Pancreas 43:1050-1059 (2014)). Another cohort received untreated drinking water. The reversal study, took mice that had been on the CDE diet and untreated water (CDE/Reg) for 12 weeks (a time determined to result in the mice having NASH histologically and biochemical hepatitis). Mice were randomly allocated to one of two groups at 12 weeks. The first group (N=15) continued on the CDE diet and untreated water and the second group (N=15) also continued on the CDE diet but then received proglumide in the drinking water at the same concentration as the prevention study (0.1 mg/ml). The purpose of the reversal study was to see if proglumide could reverse any of the histologic and biochemical abnormalities of NASH from the 12-week CDE/regular water diet. The other group continued on the CDE diet with untreated drinking water. The animals in each group were weighed weekly. At the termination of the experiment the animal body weight and liver weight were recorded. Subgroups of mice were ethically euthanized after CO2 asphyxiation and cervical dislocation at one of 4 different time points: weeks 4, 8, 12, or 18. Blood was collected by pericardiac puncture and centrifuged. Serum was analyzed by VRL Laboratories (Gaithersburg, MD). The following liver tests were evaluated and the normal range for mouse is shown: Alkaline phosphatase (35-275 u/L); Alanine aminotransferase, ALT (17-129 u/L); Aspartate aminotransferase, AST (46-392 u/L); and total bilirubin (0-0.9 mg/dL). The liver tissues were fixed in 4% paraformaldehyde, paraffin embedded, and 8 μm sections were cut. Mounted sections were stained with Hematoxylin & Eosin or Masson's trichrome. A Liver pathologist blinded to the treatments and time period scored tissues for inflammation, fibrosis, steatosis, and whether there was evidence of dysplastic nodules or cancer (Table 2). Histology was scored for grade of inflammation (0-3), fibrosis (0-4), steatosis (0-3), balloon degeneration (0-2) and dysplasia or cancer (0-2). For analysis, a NASH score was defined as the combination of the steatosis and the balloon degeneration score. […]

Series [3] has as its system mice on control high fat diet. Put plainly: Control high fat diet with choline, proglumide-treated versus untreated water. The series is classed as in vivo, mouse (female C57BL/6). The method, then:
All mouse studies were performed in an ethical fashion and approved by the Institutional Animal Care and Use Committee, protocol #2016-1193 for animal research by Georgetown University. Female C57BL/6 mice (body weight of >20 g) were obtained from Charles River Laboratory (Germantown, MD). Mice were housed with five per cage with filter-top cages and housing light cycled q12 hrs; on-off.
Mice were fed one of two custom high fat diets from MP Biomedicals, LLC (Solon, Ohio). The first group received a modified Choline Deficient Diet with 75% Ethionine supplemented diet (CDE) as previously described by Passman et al. “A modified choline-deficient, ethionine-supplemented diet reduces morbidity and retains a liver progenitor cell response in mice,” Dis Model Mech 8:1635-1641 (2015). […] The control mice received the same diet with choline. Both diets contained casein as the major source of protein and lard (saturated fat) as the primary source of fat. […] The food intake was measured by weighing food consumed to assure mice were eating equal amounts of food in each group, and animals ate ad libitum. […]
Subgroups of mice were ethically euthanized after CO2 asphyxiation and cervical dislocation at one of 4 different time points: weeks 4, 8, 12, or 18. […] Serum was analyzed by VRL Laboratories (Gaithersburg, MD). The following liver tests were evaluated and the normal range for mouse is shown: Alkaline phosphatase (35-275 u/L); Alanine aminotransferase, ALT (17-129 u/L); Aspartate aminotransferase, AST (46-392 u/L); and total bilirubin (0-0.9 mg/dL).
The liver tissues were fixed in 4% paraformaldehyde, paraffin embedded, and 8 μm sections were cut. […] A Liver pathologist blinded to the treatments and time period scored tissues for inflammation, fibrosis, steatosis, and whether there was evidence of dysplastic nodules or cancer (Table 2). Histology was scored for grade of inflammation (0-3), fibrosis (0-4), steatosis (0-3), balloon degeneration (0-2) and dysplasia or cancer (0-2). […]

For series [4] the following is noted: PIVENS trial; cited from earlier work.
Setting [5] is: CDE/Prog vs CDE/Reg, weeks 12 and 18.
Where [6] appears, read: CDE/Reg 12 weeks then proglumide water 6 weeks.

For `CCCN(CCC)C(=O)C(CCC(=O)O)NC(=O)c1ccccc1` (centres unmarked) [proglumide], the “serum AST levels” value in series [1] (CDE diet + proglumide 0.1 mg/ml in drinking water from day 0 (Prevention), vs CDE/Reg) was “restored to near normal; also recorded: at or near normal levels”. Further, the “ALT serum levels, week 12” value in series [1] (CDE diet + proglumide water from day 0, week 12) is on record as “did not prevent elevation”. In series [1] (CDE diet + proglumide water from day 0, week 18), the “ALT serum levels, week 18” value was “did decrease ALT values; also recorded: able to prevent this increase only after 18 weeks”. Also, in series [1] (CDE diet + proglumide water from day 0, weeks 12 and 18, vs CDE/Reg), the serum total bilirubin result was “completely prevented; also recorded: prevented bilirubin level increases”. For the same compound, the “alkaline phosphatase blood levels” value in series [1] (CDE diet + proglumide water, vs CDE/Reg) is recorded as “not prevented or reversed; also recorded: did not decrease alkaline phosphatase”. Moreover, in series [1] (setting [5]), the “histologic features/changes of NASH” value is reported as “significantly decreased; also recorded: prevented”, the histologic fibrosis score entry was “prevented; also recorded: decreased fibrosis”, the histologic inflammation score result is “prevented; also recorded: marked decrease in inflammation; also recorded: decreased inflammation” and the histologic steatosis score result was “prevented; also recorded: decreased steatosis”. In addition, the balloon degeneration entry in series [1] (CDE/Prog, week 12 liver histology) is recorded as “minimal or no balloon degeneration”. For the same compound, in series [1] (week 18, CDE/Prog prevention arm N=15, CDE/Reg 8 of 23), the “mice with dysplastic nodules or HCC” value is “none and no dysplasia or HCC”. In addition, the “serum AST levels” value in series [2] (CDE/Reg 12 weeks then CDE/Prog 6 weeks (Recovery)) is “significantly decreased”. For the same compound, the “HCC or dysplastic nodules” value in series [2] (CDE/Reg 12 weeks then CDE/proglumide 6 weeks, N=15, week 18) is “no evidence of HCC or dysplastic nodules and none”. Also, in series [2] (setting [6]), the alkaline phosphatase levels entry is “not prevented or reversed” and the serum total bilirubin result is “returned to the normal range; also recorded: decreased bilirubin”. Besides, in series [2] (Recovery vs CDE/Reg for 18 full weeks), the ALT serum levels result is on record as “this difference was not significant”. In series [2] (Recovery, week 18), the histologic fibrosis score entry is recorded as “able to decrease; also recorded: improved” and the histologic inflammation score result is “able to decrease; also recorded: improved”. Also, the “liver blood tests and histology” value in series [2] (proglumide for 6 weeks while continuing the CDE diet) is listed as “improved significantly”. For the same compound, the “abnormalities in hepatic blood tests or weight” value in series [3] (control diet with proglumide vs untreated drinking water) is listed as “no evidence of abnormalities”. Besides, in series [3] (control diet, proglumide water vs untreated water), the body weight entry is on record as “did not weigh more”. Also, the liver histology result in series [3] (control diet, proglumide water vs untreated water, week 18) is “no evidence of NASH; also recorded: No differences”.
As to Vitamin E, the reversal of fibrosis entry in series [4] is recorded as “neither compound statistically reversed fibrosis”.
